Literature values in patent US20050090549A1, “Intrathecal gabapentin for treatment of pain” (Medtronic, Inc., priority 2003, published 2005).

Conditions: in water and in both basic and acidic aqueous solutions

Question: Which solubility does the source give for NCC1(CC(=O)O)CCCCC1 [1-(aminomethyl)cyclohexane acetic acid] here?
Answer: The solubility was “freely soluble”.
